Literature values, collected in paper PMC9371267 (PLoS Biology, 2022).

Key:
GALR2 and GALR3 vs GALR1 = conditions: ref [3],[14]; cited from earlier work
Source text: Phe264 and Leu266 in ECL3 contact Leu10^P and Trp2^P ...

GALR2 vs GALR1 = conditions: GALR2 over GALR1; ref [3]–[5]; cited from earlier work
Source text: Its GPCR family receptors (from GALR1 to GALR3) are associated with different disease states and have been used as markers for certain cancer types. […] Agonists for GALR2 are be ...

GALRs = conditions: Trp2 replaced with alanine; ref [4]; cited from earlier work
Source text: (§1) Activated GPCRs act as nucleotide exchange factors through direct interactions with heterotrimeric G-proteins. The C-terminal helix of mGαqiN fits into a hydrophobic pocket formed by TM 5–7 of GALR2 (Fig 1B). Phe228, Ile235, Asn239, and Tyr243 of mGαqiN form the principal interface with GALR2, and a salt bridge forms between Glu135^ICL2 of GALR2 and Arg32 of mGαqiN (Fig 1B). […] The modeled fra ...

GALR2 = conditions: endogenous ligands; ref [13]; cited from earlier work
Source text: as §1

## galanin^2–11: truncated peptide galanin^2–11
GALR2 and GALR3 vs GALR1
  receptor specificity: specificity for GALR2 and GALR3 over GALR1
GALR2 vs GALR1
  binds to GALR2 more tightly than GALR1: roughly 500 times

## Trp2^P of galanin with alanine: galanin with Trp2^P replaced with alanine (GATLNSAGYLLGPHAVGNHRSFSDKNGLTS; Galanin; UniProt P22466 33-62, looked up, variant W2A)
GALRs
  binding to GALRs: prevents binding to GALRs

## galanin-like peptide (APAHRGRGGWTLNSAGYLLGPVLHLPQMGDQDGKRETALEILDLWKAIDGLPYSHPPQPS; Galanin-like peptide; UniProt Q9UBC7 25-84, looked up) [GALP]
GALR2
  activation of GALR2: activate GALR2

B1: spexin (peptide, UniProt Q9BT56 27-116, looked up)
Spexin: APQRLLERRNWTPQAMLYLKGAQGRRFISDQSRRKDLSDRPLPERRSPNPQLLTIPEAATILLASLQKSPEDEEKNFDQTRFLEDSLLNW
modifications: Spexin
GALR2
  activation of GALR2: activate GALR2
